Results from patent US8877800B2, “Kappa-opiate agonists for the treatment of diarrhea-predominant irritable bowel syndrome” (Tioga Pharmaceuticals, Inc., priority 2007, dated 2014).
pIC50: −log10 of the molar value.

How the values were obtained:
mu opiate receptor = mu opiate receptor (Homo sapiens, UniProt P35372); assay: selectivity: IC50 at mu opiate receptor relative to kappa; type: binding; conditions: ratio kappa:mu:delta
delta opiate receptor = delta opiate receptor (Homo sapiens, UniProt P41143); assay: selectivity: IC50 at delta opiate receptor relative to kappa; type: binding; conditions: ratio kappa:mu:delta
[1] = test system: IBS-D, IBS-C and IBS-A patients; assay: Example 2: 12-week randomized, double-blind, dose-ranging, placebo-controlled fixed-dose asimadoline study in IBS; type: in vivo, human; conditions: for urgency: all three months; for improvement over placebo in percent number of months with adequate relief / percent number of months with adequate relief of IBS pain or discomfort: all IBS subjects with moderate or severe pain
Experimental: Diarrhea-predominant (IBS-D), constipation-predominant (IBS-C), and alternating IBS (IBS-A) patients were recruited from 120 sites in the United States. Patients underwent a two week screening period to ensure adequate symptoms and compliance with the interactive voice response system (IVRS) data collection system, followed by twelve weeks of treatment and a four week follow-up period. Patients received identical appearing placebo, 0.15 mg, 0.5 mg or 1.0 mg asimadoline tablets b.i.d. for the 12 week treatment period. During screening, treatment and follow-up patients entered data every day on the IVRS.
The primary endpoint was the number of months a patient was a responder for adequate relief, where the primary measure was the question, “In the past 7 days have you had adequate relief of your IBS pain or discomfort?” This measure was asked once every 7 days and a monthly responder replied “yes” at least 3 weeks per month. Numerous secondary endpoints, abdominal pain or discomfort, stool frequency, urgency, bloating, stool consistency, adequate relief of IBS symptoms and straining were also collected. Additionally, adverse clinical events, laboratory test data and electrocardiograms (ECGs) were collected.
Of the 596 subjects who were randomized, 344 reported baseline pain scores of 2.0 or higher. The pain score was a self reported score on a scale of 0-3, where 0=no pain, 1=mild pain, 2=moderate pain and 3=severe pain Subjects having scores of 2.0 or higher were categorized as having moderate or severe pain. Of the 344 moderate or severe pain subjects, 104 were classified as having IBS-D, 114 IBS-A and 126 IBS-C.

kappa-opiate receptor = kappa-opiate receptor (Homo sapiens, UniProt P41145); conditions: read-out: affinity for the kappa-opiate receptor, IC50; cited from earlier work
[2] = cited from earlier work
[3] = cited from earlier work; remark: listed apart in the source
[4] = moisture, heat, aerial oxygen, light; cited from earlier work
[5] = test system: gastric and colon distention; conditions: animal models; cited from earlier work
patients with IBS = assay: Example 1: randomized, double-blind, placebo controlled 4-week on-demand asimadoline study in participants with IBS; conditions: for Δ Pain intensity (mean ± SE): VAS, 2 hours after first dose
IBS patients = conditions: Bardhan et al., Aliment Pharmacol Ther 2000; 14:23-34; cited from earlier work

Sequence of delta opiate receptor (P41143 whole entry): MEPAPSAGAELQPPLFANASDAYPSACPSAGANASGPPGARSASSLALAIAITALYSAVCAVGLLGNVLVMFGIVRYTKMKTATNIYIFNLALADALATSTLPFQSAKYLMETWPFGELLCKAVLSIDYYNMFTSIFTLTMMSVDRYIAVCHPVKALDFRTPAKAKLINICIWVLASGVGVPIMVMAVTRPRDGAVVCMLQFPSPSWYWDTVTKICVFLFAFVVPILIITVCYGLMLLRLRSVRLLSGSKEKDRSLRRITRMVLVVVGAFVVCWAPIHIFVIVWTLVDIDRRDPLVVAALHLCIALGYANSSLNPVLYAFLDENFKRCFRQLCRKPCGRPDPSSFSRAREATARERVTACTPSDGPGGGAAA
Sequence of mu opiate receptor (P35372 whole entry): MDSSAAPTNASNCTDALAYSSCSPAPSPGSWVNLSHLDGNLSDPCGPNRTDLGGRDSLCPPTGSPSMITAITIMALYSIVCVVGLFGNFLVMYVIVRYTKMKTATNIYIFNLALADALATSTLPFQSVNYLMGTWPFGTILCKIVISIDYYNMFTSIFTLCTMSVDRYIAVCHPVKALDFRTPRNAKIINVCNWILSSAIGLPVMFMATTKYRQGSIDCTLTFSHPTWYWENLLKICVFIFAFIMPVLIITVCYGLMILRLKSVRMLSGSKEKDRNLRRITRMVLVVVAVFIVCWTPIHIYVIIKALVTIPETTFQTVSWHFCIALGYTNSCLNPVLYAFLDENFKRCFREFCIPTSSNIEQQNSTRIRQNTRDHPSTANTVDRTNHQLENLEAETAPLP
Sequence of kappa-opiate receptor (P41145 whole entry): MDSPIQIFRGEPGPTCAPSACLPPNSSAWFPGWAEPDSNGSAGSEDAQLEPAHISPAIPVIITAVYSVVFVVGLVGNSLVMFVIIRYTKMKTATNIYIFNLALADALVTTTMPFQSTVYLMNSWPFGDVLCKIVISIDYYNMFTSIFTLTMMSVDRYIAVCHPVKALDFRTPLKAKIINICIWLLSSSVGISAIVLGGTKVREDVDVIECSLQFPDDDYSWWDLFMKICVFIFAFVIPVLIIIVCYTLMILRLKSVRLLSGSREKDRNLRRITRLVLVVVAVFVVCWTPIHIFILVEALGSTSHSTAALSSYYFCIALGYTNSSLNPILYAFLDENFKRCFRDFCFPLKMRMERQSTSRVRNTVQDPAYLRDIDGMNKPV

CN(C(=O)C(c1ccccc1)c1ccccc1)[C@H](CN1CC[C@H](O)C1)c1ccccc1.Cl [Asimadoline, N-[(1S)-2-[(3S)-3-hydroxypyrrolidin-1-yl]-1-phenylethyl]-N-methyl-2,2-diphenylacetamide, hydrochloride]
ratio of IC50 values, mu relative to kappa (kappa = 1) (mu opiate receptor): ~501 | ratio of IC50 values, delta relative to kappa (kappa = 1) (delta opiate receptor): ~498 | Adverse events: Abdominal pain ([1]; 0.15 mg b.i.d.): 5.4% | Adverse events: Constipation ([1]; 0.15 mg b.i.d.): 12.8% | Adverse events: Diarrhea ([1]; 0.15 mg b.i.d.): 13.4% | Adverse events: Dizziness ([1]; 0.15 mg b.i.d.): 2.7% | Adverse events: Headache ([1]; 0.15 mg b.i.d.): 9.4% | Adverse events: Nausea ([1]; 0.15 mg b.i.d.): 5.4% | Adverse events: Sinusitis ([1]; 0.15 mg b.i.d.): 4.7% | Adverse events: Abdominal pain ([1]; 0.5 mg b.i.d.): 4.6% | Adverse events: Constipation ([1]; 0.5 mg b.i.d.): 10.5% | Adverse events: Diarrhea ([1]; 0.5 mg b.i.d.): 5.9% | Adverse events: Dizziness ([1]; 0.5 mg b.i.d.): 1.3% | Adverse events: Headache ([1]; 0.5 mg b.i.d.): 4.6% | Adverse events: Nausea ([1]; 0.5 mg b.i.d.): 8.6% | Adverse events: Sinusitis ([1]; 0.5 mg b.i.d.): 2.6% | Adverse events: Abdominal pain ([1]; 1.0 mg b.i.d.): 4.2% | Adverse events: Constipation ([1]; 1.0 mg b.i.d.): 7.6% | Adverse events: Diarrhea ([1]; 1.0 mg b.i.d.): 11.1% | Adverse events: Dizziness ([1]; 1.0 mg b.i.d.): 2.1% | Adverse events: Headache ([1]; 1.0 mg b.i.d.): 5.6% | Adverse events: Nausea ([1]; 1.0 mg b.i.d.): 2.8% | Adverse events: Sinusitis ([1]; 1.0 mg b.i.d.): 6.3% | serious clinical or laboratory adverse events related to the treatment ([1]; 0.15, 0.5 or 1.0 mg b.i.d., 12 weeks): No serious clinical or laboratory adverse events | pain scores ([1]; IBS-A subjects at these dosages): No statistically significant improvement | percent months with adequate relief of IBS pain or discomfort ([1]; IBS-A, moderate or severe pain, 1.0 mg b.i.d., placebo 27%, p=0.022): 50% | proportion of months with adequate relief of overall IBS symptoms ([1]; IBS-A, moderate or severe pain, 1.0 mg b.i.d., placebo 30%, p=0.032): 57% | percentage of monthly responders (adequate relief of pain or discomfort) ([1]; IBS-A, 1.0 mg b.i.d., first month, placebo 19%, p=0.017): 46% | abdominal pain or discomfort associated with IBS ([1]; IBS-C subjects with moderate or severe pain): no statistically significant improvement | stool consistency ([1]; IBS-D and IBS-C subjects, any of the three dosages): no statistically significant changes | bloating ([1]; IBS-D, baseline pain scores ≧2.0, 1.0 mg, second month): statistically significant reductions | percent months with adequate relief of IBS pain or discomfort ([1]; IBS-D, moderate or severe pain, 0.5 mg b.i.d., placebo 20%, p=0.011): 47% | proportion of months with adequate relief of overall IBS symptoms ([1]; IBS-D, moderate or severe pain, 0.5 mg b.i.d., placebo 23%, p=0.038): 47% | urgency ([1]; IBS-D, moderate or severe pain, 0.5 mg): statistically significant reductions | daily stool frequency ([1]; IBS-D, moderate or severe pain, 0.5 mg, from week 3 to end of treatment): dramatic decrease | bloating ([1]; IBS-D, moderate or severe pain, 0.5 mg, second and third months): Significant reductions | proportion of months with adequate relief of overall IBS symptoms ([1]; IBS-D, moderate or severe pain, 1.0 mg b.i.d., placebo 23%, p=0.039): 43% | urgency ([1]; IBS-D, moderate or severe pain, 1.0 mg): statistically significant reductions | improvement in the percentage of pain-free days over placebo ([1]; IBS-D, pain scores ≧2.0, 0.5 mg b.i.d., weeks 1-12): ~30% | results in female versus male IBS-D subjects (adequate relief) ([1]; IBS-D, 0.5 mg): highly similar results | percentage of monthly responders (adequate relief of pain or discomfort) ([1]; IBS-D, 0.5 mg b.i.d., month 1, placebo 20%, p=0.045): 48% | percentage of monthly responders (adequate relief of pain or discomfort) ([1]; IBS-D, 0.5 mg b.i.d., month 2, placebo 18%, p=0.010): 52% | percentage of monthly responders (adequate relief of pain or discomfort) ([1]; IBS-D, 0.5 mg b.i.d., month 3, placebo 27%, p=0.010): 50% | pain scores ([1]; IBS-D, 0.5 mg, every week starting at week 3 and every month): statistically significant improvement | more pain free days compared to placebo ([1]; IBS-D, 0.5 mg, over the 3 month study): 21 days | pain scores ([1]; IBS-D, 1.0 mg, every month and six of the twelve weeks): statistically significant improvement | improvement over placebo in percent number of months with adequate relief ([1]; 0.5 mg b.i.d.): 17% | percent number of months with adequate relief of IBS pain or discomfort ([1]; 0.5 mg b.i.d., placebo 23%, p=0.006): 40% | improvement over placebo in percent number of months with adequate relief ([1]; 1.0 mg b.i.d.): 17% | percent number of months with adequate relief of IBS pain or discomfort ([1]; 1.0 mg b.i.d., placebo 23%, p=0.005): 40% | tolerability ([1]; fixed dose, 12 weeks): well tolerated | pIC50 (kappa-opiate receptor): 8.92 | bioavailability ([2]; fasting subjects): 50% | effect of eating on bioavailability ([2]; food interaction studies): eating does not substantially impact bioavailability | half-life ([2]; in vivo): 2 to 3 h | penetration of the blood-brain barrier ([2]; in vivo): poor penetration of the blood-brain barrier | solubility in ethanol ([3]; ethanol): 5400 µg/mL | solubility in water ([3]; water): 11600 µg/mL | stability of the substance [4]: slightly sensitive to moisture, but stable against heat, aerial oxygen and light | sensation responses to gastric and colon distention [5]: reduce sensation responses | Proportion of days with adequate relief of symptoms (mean ± SE) (patients with IBS; IBS-A): 0.46 ± 0.08 | change in bowel movements per day, corrected for placebo change from baseline (patients with IBS; IBS-A): increase | delta pain intensity scores relative to placebo (patients with IBS; IBS-A (alternators), p=0.003): significantly better than placebo | Δ Pain intensity (mean ± SE) (patients with IBS; IBS-A, unadjusted p = 0.003 vs placebo): 37.8 ± 3.7 mm | Δ mean # stools, treatment compared to baseline (patients with IBS; IBS-A, on-demand, 4 weeks): 0.0 ± 0.1 | Δ mean ease of passage, treatment compared to baseline (patients with IBS; IBS-A, on-demand, 4 weeks): 0.0 ± 0.1 | Δ mean stool form, treatment compared to baseline (patients with IBS; IBS-A, on-demand, 4 weeks): 0.2 ± 0.2 | Proportion of days with adequate relief of symptoms (mean ± SE) (patients with IBS; IBS-C): 0.11 ± 0.07 | change in bowel movements per day, corrected for placebo change from baseline (patients with IBS; IBS-C): increase | Δ Pain intensity (mean ± SE) (patients with IBS; IBS-C): 23.8 ± 4.0 mm | Δ mean ease of passage, treatment compared to baseline (patients with IBS; IBS-C, on-demand, 4 weeks): −0.1 ± 0.1 | Δ mean stool form, treatment compared to baseline (patients with IBS; IBS-C, on-demand, 4 weeks): 0.0 ± 0.2 | Proportion of days with adequate relief of symptoms (mean ± SE) (patients with IBS; IBS-D): 0.45 ± 0.08 | change in bowel movements per day, corrected for placebo change from baseline (patients with IBS; IBS-D): decrease | Δ Pain intensity (mean ± SE) (patients with IBS; IBS-D): 25.0 ± 2.9 mm | Δ mean # stools, treatment compared to baseline (patients with IBS; IBS-D, on-demand, 4 weeks): −0.3 ± 0.1 | Δ mean ease of passage, treatment compared to baseline (patients with IBS; IBS-D, on-demand, 4 weeks): −0.1 ± 0.1 | Δ mean stool form, treatment compared to baseline (patients with IBS; IBS-D, on-demand, 4 weeks): −0.1 ± 0.2 | Adverse events: Body as a whole (patients with IBS; on-demand, 4 weeks): 15.00% | Adverse events: Central and peripheral nervous system (patients with IBS; on-demand, 4 weeks): 48.33% | Adverse events: Gastrointestinal (patients with IBS; on-demand, 4 weeks): 16.67% | Adverse events: Genitourinary (patients with IBS; on-demand, 4 weeks): 1.67% | Adverse events: Musculoskeletal (patients with IBS; on-demand, 4 weeks): 6.67% | Adverse events: Psychiatric (patients with IBS; on-demand, 4 weeks): 15.00% | Adverse events: Respiratory (patients with IBS; on-demand, 4 weeks): 33.33% | serious clinical or laboratory adverse events (patients with IBS; on-demand, 4 weeks): no serious clinical or laboratory adverse events | tolerability (patients with IBS; on-demand, 4 weeks): well tolerated

Cc1[nH]cnc1CN1CCc2c(c3ccccc3n2C)C1=O [LOTRONEX]
improvement in the percentage of pain-free days (IBS patients): 10%
